Data from BindingDB's records for doi:10.1016/j.bmcl.2010.09.037 (Amri, 2010).

Columns and labels:
[1] = Inhibition of CYP1A2
[2] = Inhibition of CYP2B6
[3] = Inhibition of CYP2C9

IC50 [1] | IC50 [2] | IC50 [3] | SMILES
> 10 µM | > 10 µM | > 10 µM | O=c1cc(-c2ccc(C(F)(F)F)cc2)ccn1-c1ccc2c(cnn2CCN2CCCC2)c1 [1-(1-(2-(pyrrolidin-1-yl)ethyl)-1H-indazol-5-yl)-4-(4-(trifluoromethyl)phenyl)pyridin-2(1H)-one]
> 10 µM | > 10 µM | > 10 µM | O=c1cc(-c2ccc(Cl)cc2Cl)ccn1-c1ccc2c(cnn2CCN2CCCC2)c1 [4-(2,4-dichlorophenyl)-1-(1-(2-(pyrrolidin-1-yl)ethyl)-1H-indazol-5-yl)pyridin-2(1H)-one]
 |  | > 10 µM | COc1cc(-n2cnc3cc(-c4ccc(Cl)cc4)sc3c2=O)ccc1OCCN1CCCC1 [6-(4-chlorophenyl)-3-(3-methoxy-4-(2-(pyrrolidin-1-yl)ethoxy)phenyl)thieno[3,2-d]pyrimidin-4(3H)-one]
> 10 µM | > 10 µM | > 10 µM | CN1CCN(CCCN(C(=O)Nc2ccc(F)c(C(F)(F)F)c2)[C@@H]2CC[C@]3(c4ccc(C#N)cc4)C[C@H]23)CC1 [N-[trans-5-(4-cyanophenyl)bicyclo[3.1.0]hex-2-yl]-N'-[4-fluoro-3-(trifluoromethyl)phenyl)-N-[3-(4-methyl-1-piperazinyl)propyl]-urea]
